In US11964950B2, “Arylamide derivative having antitumor activity” (priority 2020, dated 2024):

Assays:
[1] = tested on: Calu-6 human lung cancer cells; assay: Cell proliferation-inhibiting activity, Calu-6 (CellTiter-Glo, ATP in viable cells); format: cell-based; details: Calu-6, 96 h, Table 3, 4 days culture
Description: (§1) The cell proliferation-inhibiting activity of the compounds listed in Table 3 below was evaluated by measuring the amount of ATP in viable cells as described below.
(§2) The test compound was serially diluted with DMSO and then diluted 25-fold with Ca^2+, Mg^2+-free phosphate-buffered saline, and was then dispensed into a 96-well plate at 5 μL per well. A cell suspension containing the below indicated concentration of A549, Calu-6 or NCI-H2122 human lung cancer cells (all obtained from ATCC) was prepared using the below indicated medium with the addition of 10% fetal bovine serum (Sigma). The cell suspension was dispensed into the test compound-added plate at 95 μL per well and cultured in a 5% carbon dioxide gas incubator at 37° C. After 4 days, 80 μL of CellTiter-Glo (registered trademark) (Promega Corp.) was added to each well and the bioluminescence was measured with a fluorescent plate reader.
Calu-6: Eagle's Minimum Essential Medium (Sigma); 4000 cells/95 μL

[2] = tested on: A549 human lung cancer cells; assay: Cell proliferation-inhibiting activity, A549 (CellTiter-Glo, ATP in viable cells); format: cell-based; details: A549, 96 h, Table 3, 4 days culture
Description: as §1, §2
A549: Dulbecco's Modified Eagle's Medium (Sigma); 2000 cells/95 μL

[3] = Human liver microsome stability; format: in vitro ADME; details: human liver microsomes (XENOTECH), pH 7.4, hepatic intrinsic clearance, NADPH, 37° C.
Description: There were dispensed 400 μL of 1 mg/mL human liver microsomes (XENOTECH)/0.1 M potassium phosphate buffer (pH 7.4) into each well of a 96-well plate. A DMSO solution (4 μL) of 200 μM test compound was then added, and incubation was conducted until reaching 37° C. To this reaction mixture (200 μL) there was added a solution (200 μL) containing 2 mM NADPH (ORIENTAL YEAST)/0.1 M potassium phosphate buffer (pH 7.4) that had been incubated at 37° C. At 0 min, 5 min, 15 min or 30 min after addition, the reaction mixture (50 μL) was added to acetonitrile (100 μL) to stop the metabolic reaction. After the metabolic reaction was stopped, a 1 μM warfarin aqueous solution (50 μL) was added to each reaction mixture as an internal standard. The reaction mixture was filtered and analyzed by LC/MS/MS (LC: NEXERA by Shimadzu; MS: 4000Q trap by ABSciex; column: Ascentis Express C18 HPLC column (5 cm×2.1 mm, 2.7 μm); ionization method: electrospray ionization). The percent remaining relative to the amount of test compound at 0 min was calculated from the obtained peak area ratio of the test compound to internal standard. The elimination rate constant (ke) was calculated from the incubation time and percent remaining using the primary elimination rate equation, and the hepatic intrinsic clearance (CLint) was calculated using the formula shown below. CLint (μL/min/mg)=ke (min^−1)/human liver microsome concentration (mg protein/μL)

| SMILES | IC50 [1] [µM] | IC50 [2] [µM] | microsomal CLint at 0.99 µM [3] [µL/min/mg] |
| --- | --- | --- | --- |
| COCCNS(=O)(=O)Nc1nccc(Cc2cc(C(=O)NOC)c(Nc3ccc(I)cc3F)n(C)c2=O)c1F [J-9, 2-(2-Fluoro-4-iodoanilino)-5-[[3-fluoro-2-(2-methoxyethylsulfamoylamino)pyridin-4-yl]methyl]-N-methoxy-1-methyl-6-oxopyridine-3-carboxamide] | 0.232 | 0.167 | – |
| CC1(NS(=O)(=O)Nc2nccc(Cc3cc(C(=O)NC4CC4)c(Nc4ccc(I)cc4F)c(F)c3F)c2F)CCC1 [A-47, N-Cyclopropyl-3,4-difluoro-2-(2-fluoro-4-iodoanilino)-5-[[3-fluoro-2-[(1-methylcyclobutyl)sulfamoylamino]pyridin-4-yl]methyl]benzamide] | 0.104 | – | – |
| COCC1(S(=O)(=O)Nc2cccc(Cc3cc(C(=O)NOC)c(Nc4ccc(I)cc4F)c(F)c3F)c2F)CC1 [E-3, 3,4-Difluoro-2-(2-fluoro-4-iodoanilino)-5-[[2-fluoro-3-[[1-(methoxymethyl)cyclopropyl]sulfonylamino]phenyl]methyl]-N-methoxybenzamide] | – | – | 149 |
| CCCS(=O)(=O)Nc1nccc(Cc2cc(C(N)=O)c(Nc3ccc(I)cc3F)c(F)c2F)c1F [B-8, 3,4-Difluoro-2-(2-fluoro-4-iodoanilino)-5-[[3-fluoro-2-(propylsulfonylamino)pyridin-4-yl]methyl]benzamide] | 0.233 | – | – |
| Cn1c(Nc2ccc(I)cc2F)c(C(N)=O)cc(Cc2ccnc(NS(=O)(=O)NC3(C)CCC3)c2F)c1=O [J-15, 2-(2-Fluoro-4-iodoanilino)-5-[[3-fluoro-2-[(1-methylcyclobutyl)sulfamoylamino]pyridin-4-yl]methyl]-1-methyl-6-oxopyridine-3-carboxamide] | 0.284 | – | – |
| CCS(=O)(=O)Nc1cccc(Cc2cc(C(=O)NC3CC3)c(Nc3ccc(I)cc3F)c(F)c2F)c1F [D-8, N-Cyclopropyl-5-[[3-(ethylsulfonylamino)-2-fluorophenyl]methyl]-3,4-difluoro-2-(2-fluoro-4-iodoanilino)benzamide] | 0.112 | – | – |
| CCNS(=O)(=O)Nc1nccc(Cc2cc(C(N)=O)c(Nc3ccc(I)cc3F)n(C)c2=O)c1F [J-14, 5-[[2-(ethylsulfamoylamino)-3-fluoropyridin-4-yl]methyl]-2-(2-fluoro-4-iodoanilino)-1-methyl-6-oxopyridine-3-carboxamide] | 0.123 | 0.121 | – |
| NC(=O)c1cc(Cc2cccc(NS(=O)(=O)C3COC3)c2F)c(F)c(F)c1Nc1ccc(I)cc1F [E-21, 3,4-Difluoro-2-(2-fluoro-4-iodoanilino)-5-[[2-fluoro-3-(oxetan-3-ylsulfonylamino)phenyl]methyl]benzamide] | 0.109 | – | – |
| NC(=O)c1cc(Cc2cccc(NS(=O)(=O)CCCF)c2F)c(F)c(F)c1Nc1ccc(I)cc1F [E-15, 3,4-Difluoro-5-[[2-fluoro-3-(3-fluoropropylsulfonylamino)phenyl]methyl]-2-(2-fluoro-4-iodoanilino)benzamide] | 0.152 | – | – |
| Cc1c(Nc2ccc(I)cc2F)c(C(N)=O)cn(Cc2ccnc(NS(=O)(=O)NC3(C)CCC3)c2F)c1=O [P-3, 4-(2-Fluoro-4-iodoanilino)-1-[[3-fluoro-2-[(1-methylcyclobutyl)sulfamoylamino]pyridin-4-yl]methyl]-5-methyl-6-oxopyridine-3-carboxamide] | 0.223 | – | – |
| NC(=O)c1cc(Cc2cccc(NS(=O)(=O)C3CCC3)c2F)c(F)c(F)c1Nc1ccc(I)cc1F [E-20, 5-[[3-(Cyclobulsulfonylamino)-2-fluorophenyl]methyl]-3,4-difluoro-2-(2-fluoro-4-iodoanilino)benzamide] | 0.103 | – | – |
| CCS(=O)(=O)Nc1cccc(Cc2cc(C(=O)NC3CC3)c(Nc3ccc(I)cc3F)n(C)c2=O)c1F [K-8, N-Cyclopropyl-5-[[3-(ethylsulfonylamino)-2-fluorophenyl]methyl]-2-(2-fluoro-4-iodoanilino)-1-methyl-6-oxopyridine-3-carboxamide] | 0.122 | – | – |
| CCS(=O)(=O)Nc1nccc(Cc2cc(C(N)=O)c(Nc3ccc(I)cc3F)c(F)c2F)c1F [A-38, 5-[[2-(Ethylsulfonylamino)-3-fluoropyridin-4-yl]methyl]-3,4-difluoro-2-(2-fluoro-4-iodoanilino)benzamide] | 0.122 | – | – |
| CNS(=O)(=O)Nc1nccc(Cc2cc(C(=O)NOC)c(Nc3ccc(Cl)cc3F)c(F)c2F)c1F [G-4, 2-(4-Chloro-2-fluoroanilino)-3,4-difluoro-5-[[3-fluoro-2-(methylsulfamoylamino)pyridin-4-yl]methyl]-N-methoxybenzamide] | 0.259 | – | – |
| CCS(=O)(=O)Nc1cc(Cc2cc(C(N)=O)c(Nc3ccc(I)cc3F)n(C)c2=O)ccn1 [J-12, 5-[[2-(Ethylsulfonylamino)pyridin-4-yl]methyl]-2-(2-fluoro-4-iodoanilino)-1-methyl-6-oxopyridine-3-carboxamide] | 0.471 | 0.226 | – |
| COCCNS(=O)(=O)Nc1nccc(Cc2cc(C(N)=O)c(Nc3ccc(I)cc3F)n(C)c2=O)c1F [J-2, 2-(2-Fluoro-4-iodoanilino)-5-[[3-fluoro-2-(2-methoxyethylsulfamoylamino)pyridin-4-yl]methyl]-1-methyl-6-oxopyridine-3-carboxamide] | – | 0.351 | – |
| CCS(=O)(=O)Nc1nccc(Cn2cc(C(=O)NOC)c(Nc3ccc(I)cc3F)c(C)c2=O)c1F [P-5, 1-[[2-(ethylsulfonylamino)-3-fluoropyridin-4-yl]methyl]-4-(2-fluoro-4-iodoanilino)-N-methoxy-5-methyl-6-oxopyridine-3-carboxamide] | 0.447 | – | – |
| CCCS(=O)(=O)Nc1cccc(Cc2cc(C(N)=O)c(Nc3ccc(I)cc3F)c(F)c2F)c1F [E-18, 3,4-Difluoro-2-(2-fluoro-4-iodoanilino)-5-[[2-fluoro-3-(propylsulfonylamino)phenyl]methyl]benzamide] | 0.122 | – | – |
| COCCS(=O)(=O)Nc1cccc(Cc2cc(C(N)=O)c(Nc3ccc(I)cc3F)c(F)c2F)c1 [F-3, 3,4-Difluoro-2-(2-fluoro-4-iodoanilino)-5-[[3-(2-methoxyethylsulfonylamino)phenyl]methyl]benzamide] | 0.118 | – | – |
| CCCNS(=O)(=O)Nc1nccc(Cn2cc(C(N)=O)c(Nc3ccc(I)cc3F)c(F)c2=O)c1F [N-2, 5-fluoro-4-(2-fluoro-4-iodoanilino)-1-[[3-fluoro-2-(propylsulfamoylamino)pyridin-4-yl]methyl]-6-oxopyridine-3-carboxamide] | – | 0.193 | – |
| COCCNS(=O)(=O)Nc1nccc(Cc2cc(C(N)=O)c(Nc3ccc(I)cc3F)cc2F)c1F [1-4, 4-Fluoro-2-(2-fluoro-4-iodoanilino)-5-[[3-fluoro-2-(2-methoxyethylsulfamoylamino)pyridin-4-yl]methyl]benzamide] | – | 0.444 | – |
| CCNS(=O)(=O)Nc1nccc(Cc2cc(C(N)=O)c(Nc3ccc(I)cc3F)cc2F)c1F [1-2, 5-[[2-(Ethylsulfamoylamino)-3-fluoropyridin-4-yl]methyl]-4-fluoro-2-(2-fluoro-4-iodoanilino)benzamide] | 0.103 | – | – |
| Cn1c(Nc2ccc(I)cc2F)c(C(N)=O)cc(Cc2ccnc(NS(=O)(=O)NC3CC3)c2F)c1=O [J-13, 5-[[2-(Cyclopropylsulfamoylamino)-3-fluoropyridin-4-yl]methyl]-2-(2-fluoro-4-iodoanilino)-1-methyl-6-oxopyridine-3-carboxamide] | 0.281 | 0.196 | – |
| COCCNS(=O)(=O)Nc1nccc(Cc2cc(C(=O)NC3CC3)c(Nc3ccc(I)cc3F)n(C)c2=O)c1F [J-7, N-Cyclopropyl-2-(2-fluoro-4-iodoanilino)-5-[[3-fluoro-2-(2-methoxyethylsulfamoylamino)pyridin-4-yl]methyl]-1-methyl-6-oxopyridine-3-carboxamide] | – | 0.101 | – |
| CC1(NS(=O)(=O)Nc2cccc(Cc3cc(C(=O)NC4CC4)c(Nc4ccc(I)cc4F)c(F)c3F)c2F)CCC1 [D-10, N-Cyclopropyl-3,4-difluoro-2-(2-fluoro-4-iodoanilino)-5-[[2-fluoro-3-[(1-methylcyclobutyl)sulfamoylamino]phenyl]methyl]benzamide] | 0.307 | – | – |
| CCS(=O)(=O)Nc1nccc(Cc2cc(C(=O)NC3CC3)c(Nc3ccc(C4CC4)cc3F)c(F)c2F)c1F [G-7, N-Cyclopropyl-2-(4-cyclopropyl-2-fluoroanilino)-5-[[2-(ethylsulfonylamino)-3-fluoropyridin-4-yl]methyl]-3,4-difluorobenzamide] | 0.443 | – | – |
